Data taken from ChEMBL document CHEMBL4325853, “Design, synthesis and antibacterial evaluation of 2,4-disubstituted-6-thiophenyl-pyrimidines” (Eur J Med Chem, 2019).
Converted amounts (≈) assume the structure as drawn. The source made the active and inactive calls. No cut-off for these calls is given here.

How the values were obtained:
Staphylococcus aureus [1] = test: Antibacterial activity against methicillin-resistant Staphylococcus aureus isolate 2931 after 18 hrs by broth microdilution method; type: functional; conditions: isolate 2931, 18 h
[2] = Selectivity index, ratio of HC50 for human erythrocytes to MIC for methicillin-resistant Staphylococcus aureus ATCC 33591; type: toxicity; conditions: read-out: Selectivity Index
Staphylococcus aureus [3] = test: Antibacterial activity against methicillin-resistant Staphylococcus aureus isolate 2350 after 18 hrs by broth microdilution method; type: functional; conditions: isolate 2350, 18 h
Staphylococcus aureus [4] = test: Antibacterial activity against methicillin-resistant Staphylococcus aureus isolate 3123 after 18 hrs by broth microdilution method; type: functional; conditions: isolate 3123, 18 h
Staphylococcus aureus [5] = test: Antibacterial activity against methicillin-resistant Staphylococcus aureus isolate 1220 after 18 hrs by broth microdilution method; type: functional; conditions: isolate 1220, 18 h
Staphylococcus aureus [6] = test: Antibacterial activity against methicillin-resistant Staphylococcus aureus isolate 7916 after 18 hrs by broth microdilution method; type: functional; conditions: isolate 7916, 18 h
Staphylococcus aureus [7] = test: Potency index, ratio of methicillin MIC to test compound MIC for methicillin-resistant Staphylococcus aureus ATCC 33591; type: functional
Staphylococcus aureus [8] = test: Antibacterial activity against Staphylococcus aureus ATCC 29213 after 10 passages by broth microdilution method; type: functional, organism-based
Staphylococcus aureus [9] = test: Antibacterial activity against methicillin-resistant Staphylococcus aureus isolate 8071 after 18 hrs by broth microdilution method; type: functional; conditions: isolate 8071, 18 h
Staphylococcus aureus [10] = test: Antibacterial activity against methicillin-resistant Staphylococcus aureus isolate 7807 after 18 hrs by broth microdilution method; type: functional; conditions: isolate 7807, 18 h
[11] = biological target: T1, Cell division protein FtsZ (Staphylococcus aureus) (UniProt P0A031); test: Inhibition of recombinant Staphylococcus aureus FtsZ polymerization at 8 ug/ml by 90 degree light scattering-based fluorescence spectrometric analysis
T1 sequence (whole entry): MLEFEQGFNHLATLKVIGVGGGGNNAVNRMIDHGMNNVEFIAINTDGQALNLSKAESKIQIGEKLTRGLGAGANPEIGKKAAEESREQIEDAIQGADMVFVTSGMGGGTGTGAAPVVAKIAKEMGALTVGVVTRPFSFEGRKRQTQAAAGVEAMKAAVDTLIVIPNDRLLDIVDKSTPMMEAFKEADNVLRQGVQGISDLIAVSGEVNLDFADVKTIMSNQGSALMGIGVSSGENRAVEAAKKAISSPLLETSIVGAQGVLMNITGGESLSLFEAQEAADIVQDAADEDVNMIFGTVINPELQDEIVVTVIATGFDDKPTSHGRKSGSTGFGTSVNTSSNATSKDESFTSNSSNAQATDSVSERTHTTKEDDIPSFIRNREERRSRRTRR

Staphylococcus aureus [12] = test: Antibacterial activity against methicillin-resistant Staphylococcus aureus isolate 7943 after 18 hrs by broth microdilution method; type: functional; conditions: isolate 7943, 18 h
Staphylococcus aureus [13] = test: Antibacterial activity against methicillin-resistant Staphylococcus aureus isolate 7971 after 18 hrs by broth microdilution method; type: functional; conditions: isolate 7971, 18 h
Staphylococcus aureus [14] = test: Antibacterial activity against methicillin-resistant Staphylococcus aureus isolate 6515 after 18 hrs by broth microdilution method; type: functional; conditions: isolate 6515, 18 h
Staphylococcus aureus [15] = test: Antibacterial activity against methicillin-resistant Staphylococcus aureus isolate 7863 after 18 hrs by broth microdilution method; type: functional; conditions: isolate 7863, 18 h
Staphylococcus aureus [16] = test: Antibacterial activity against methicillin-resistant Staphylococcus aureus isolate 7449 after 18 hrs by broth microdilution method; type: functional; conditions: isolate 7449, 18 h
Staphylococcus aureus [17] = test: Antibacterial activity against methicillin-resistant Staphylococcus aureus ATCC 33591 after 18 hrs by broth microdilution method; type: functional; conditions: ATCC 33591, 18 h
[18] = Selectivity index, ratio of HC50 for human erythrocytes to MIC for methicillin-resistant Staphylococcus aureus ATCC BAA41; type: toxicity; conditions: read-out: Selectivity Index
Staphylococcus aureus [19] = test: Antibacterial activity against methicillin-resistant Staphylococcus aureus isolate 5056 after 18 hrs by broth microdilution method; type: functional; conditions: isolate 5056, 18 h
[20] = Selectivity index, ratio of HC50 for human erythrocytes to MIC for methicillin-resistant Staphylococcus aureus ATCC 43300; type: toxicity; conditions: read-out: Selectivity Index
Staphylococcus aureus [21] = test: Antibacterial activity against Staphylococcus aureus ATCC 29213 after 18 hrs by broth microdilution method; type: functional; conditions: ATCC 29213, 18 h
Staphylococcus aureus [22] = test: Antibacterial activity against methicillin-resistant Staphylococcus aureus isolate 7960 after 18 hrs by broth microdilution method; type: functional; conditions: isolate 7960, 18 h
Staphylococcus aureus [23] = test: Ratio of MBC to MIC for methicillin-resistant Staphylococcus aureus ATCC 43300; type: functional
Bacillus subtilis = test: Antibacterial activity against Bacillus subtilis 168 after 18 hrs by broth microdilution method; type: functional; conditions: subsp. subtilis str. 168, 18 h
Staphylococcus aureus [24] = test: Antibacterial activity against methicillin-resistant Staphylococcus aureus isolate 2671 after 18 hrs by broth microdilution method; type: functional; conditions: isolate 2671, 18 h
[25] = system: Staphylococcus epidermidis; test: Antibacterial activity against Staphylococcus epidermidis ATCC 12228 after 18 hrs by broth microdilution method; type: functional; conditions: ATCC 12228, 18 h
Staphylococcus aureus [26] = test: Antibacterial activity against methicillin-resistant Staphylococcus aureus isolate 1428 after 18 hrs by broth microdilution method; type: functional; conditions: isolate 1428, 18 h
Staphylococcus aureus [27] = test: Antibacterial activity against methicillin-resistant Staphylococcus aureus isolate 7183 after 18 hrs by broth microdilution method; type: functional; conditions: isolate 7183, 18 h
[28] = biological target: T1, Cell division protein FtsZ (Staphylococcus aureus); test: Inhibition of recombinant Staphylococcus aureus FtsZ GTPase activity assessed as reduction in inorganic phosphate formation after 30 mins by colorimetric method
Staphylococcus aureus [29] = test: Ratio of MIC for Staphylococcus aureus ATCC 29213 after and before 11 to 21 serial passages; type: functional
[30] = Hemolytic activity against human erythrocytes measured after 1 hr; type: ADME, cell-based, Erythrocyte
Enterococcus faecalis [31] = test: Antibacterial activity against Enterococcus faecalis ATCC 29212 after 18 hrs by broth microdilution method; type: functional; conditions: ATCC 29212, 18 h
Enterococcus faecalis [32] = test: Antibacterial activity against vancomycin-resistant Enterococcus faecalis ATCC 51575 after 18 hrs by broth microdilution method; type: functional; conditions: ATCC 51575, 18 h
[33] = Selectivity index, ratio of HC50 for human erythrocytes to MIC for methicillin-resistant Staphylococcus aureus ATCC 33592; type: toxicity; conditions: read-out: Selectivity Index
Staphylococcus aureus [34] = test: Antibacterial activity against methicillin-resistant Staphylococcus aureus isolate 4955 after 18 hrs by broth microdilution method; type: functional; conditions: isolate 4955, 18 h
Staphylococcus aureus [35] = test: Antibacterial activity against methicillin-resistant Staphylococcus aureus isolate 2491 after 18 hrs by broth microdilution method; type: functional; conditions: isolate 2491, 18 h
[36] = Selectivity index, ratio of HC50 for human erythrocytes to MIC for methicillin-resistant Staphylococcus aureus ATCC BAA1720; type: toxicity; conditions: read-out: Selectivity Index
Staphylococcus aureus [37] = test: Potency index, ratio of methicillin MIC to test compound MIC for methicillin-resistant Staphylococcus aureus ATCC BAA1720; type: functional
Staphylococcus aureus [38] = test: Antibacterial activity against methicillin-resistant Staphylococcus aureus isolate 7434 after 18 hrs by broth microdilution method; type: functional; conditions: isolate 7434, 18 h
Staphylococcus aureus [39] = test: Antibacterial activity against methicillin-resistant Staphylococcus aureus isolate 7717 after 18 hrs by broth microdilution method; type: functional; conditions: isolate 7717, 18 h
Staphylococcus aureus [40] = test: Antibacterial activity against methicillin-resistant Staphylococcus aureus ATCC 33592 after 18 hrs by broth microdilution method; type: functional; conditions: ATCC 33592, 18 h

With CC(C)c1ccc(CN2CCCN(CCc3cc(-c4cccs4)nc(-c4ccncc4)n3)CC2)cc1 the MIC90 (Staphylococcus aureus [1]) was 2 µg/mL (≈ 4.02 µM), the selectivity ratio [2] was > 32 and the MIC90 (Staphylococcus aureus [3]) was 2 µg/mL (≈ 4.02 µM). It also gave an MIC90 (Staphylococcus aureus [4]) of 2 µg/mL (≈ 4.02 µM), an MIC90 (Staphylococcus aureus [5]) of 2 µg/mL (≈ 4.02 µM) and an MIC90 (Staphylococcus aureus [6]) of 2 µg/mL (≈ 4.02 µM). For the same molecule, the Ratio (Staphylococcus aureus [7]) was >100, the Activity (Staphylococcus aureus [8]) was “Active” and the MIC90 (Staphylococcus aureus [9]) was 2 µg/mL (≈ 4.02 µM). The MIC90 (Staphylococcus aureus [10]) was 2 µg/mL (≈ 4.02 µM), the inhibition [11] was “Active” and the MIC90 (Staphylococcus aureus [12]) was 2 µg/mL (≈ 4.02 µM). For the same molecule, the MIC90 (Staphylococcus aureus [13]) was 2 µg/mL (≈ 4.02 µM), the MIC90 (Staphylococcus aureus [14]) was 2 µg/mL (≈ 4.02 µM) and the MIC90 (Staphylococcus aureus [15]) was 2 µg/mL (≈ 4.02 µM). The MIC90 (Staphylococcus aureus [16]) was 2 µg/mL (≈ 4.02 µM), the MIC90 (Staphylococcus aureus [17]) was 2 µg/mL (≈ 4.02 µM) and the selectivity ratio [18] was > 32. The MIC90 (Staphylococcus aureus [19]) was 2 µg/mL (≈ 4.02 µM), the selectivity ratio [20] was > 32 and the MIC90 (Staphylococcus aureus [21]) was 2 µg/mL (≈ 4.02 µM). The MIC90 (Staphylococcus aureus [22]) was 2 µg/mL (≈ 4.02 µM), the Ratio (Staphylococcus aureus [23]) was 2 and the MIC90 (Bacillus subtilis) was 2 µg/mL (≈ 4.02 µM). The MIC90 (Staphylococcus aureus [24]) was 2 µg/mL (≈ 4.02 µM), the MIC90 [25] was 2 µg/mL (≈ 4.02 µM) and the MIC90 (Staphylococcus aureus [26]) was 2 µg/mL (≈ 4.02 µM). The MIC90 (Staphylococcus aureus [27]) was 2 µg/mL (≈ 4.02 µM), the inhibition [28] was “Dose-dependent effect” and the Ratio (Staphylococcus aureus [29]) was 1. For the same molecule, the HC50 at 1 h [30] was > 64 µg/mL, the MIC90 (Enterococcus faecalis [31]) was 2 µg/mL (≈ 4.02 µM) and the MIC90 (Enterococcus faecalis [32]) was 2 µg/mL (≈ 4.02 µM). The selectivity ratio [33] was > 32, the MIC90 (Staphylococcus aureus [34]) was 2 µg/mL (≈ 4.02 µM) and the MIC90 (Staphylococcus aureus [35]) was 4 µg/mL (≈ 8.04 µM). The selectivity ratio [36] was > 32, the Ratio (Staphylococcus aureus [37]) was >100 and the MIC90 (Staphylococcus aureus [38]) was 2 µg/mL (≈ 4.02 µM). It also gave an MIC90 (Staphylococcus aureus [39]) of 2 µg/mL (≈ 4.02 µM) and an MIC90 (Staphylococcus aureus [40]) of 2 µg/mL (≈ 4.02 µM).
In the case of COc1cccc(OC)c1C(=O)N[C@@H]1C(=O)N2[C@@H]1SC(C)(C)[C@@H]2C(=O)O [METHICILLIN], the MIC90 (Staphylococcus aureus [1]) is reported as > 64 µg/mL, the MIC90 (Staphylococcus aureus [3]) is reported as > 64 µg/mL and the MIC90 (Staphylococcus aureus [4]) is reported as > 64 µg/mL. For the same molecule, the MIC90 (Staphylococcus aureus [5]) was > 64 µg/mL, the MIC90 (Staphylococcus aureus [6]) was > 64 µg/mL and the MIC90 (Staphylococcus aureus [9]) was > 64 µg/mL. For the same molecule, the MIC90 (Staphylococcus aureus [10]) was > 64 µg/mL, the inhibition [11] was “inactive” and the MIC90 (Staphylococcus aureus [12]) was > 64 µg/mL. The MIC90 (Staphylococcus aureus [13]) was > 64 µg/mL, the MIC90 (Staphylococcus aureus [14]) was > 64 µg/mL and the MIC90 (Staphylococcus aureus [15]) was > 64 µg/mL. The MIC90 (Staphylococcus aureus [16]) was > 64 µg/mL, the MIC90 (Staphylococcus aureus [17]) was > 192 µg/mL and the MIC90 (Staphylococcus aureus [19]) was > 64 µg/mL. For the same molecule, the MIC90 (Staphylococcus aureus [21]) was 1 µg/mL (≈ 2.63 µM), the MIC90 (Staphylococcus aureus [22]) was > 64 µg/mL and the MIC90 (Bacillus subtilis) was 0.5 µg/mL (≈ 1.31 µM). The MIC90 (Staphylococcus aureus [24]) was > 64 µg/mL, the MIC90 [25] was 0.5 µg/mL (≈ 1.31 µM) and the MIC90 (Staphylococcus aureus [26]) was > 64 µg/mL. The MIC90 (Staphylococcus aureus [27]) was > 64 µg/mL, the MIC90 (Enterococcus faecalis [31]) was 6 µg/mL (≈ 15.8 µM) and the MIC90 (Enterococcus faecalis [32]) was 6 µg/mL (≈ 15.8 µM). The MIC90 (Staphylococcus aureus [34]) was > 64 µg/mL, the MIC90 (Staphylococcus aureus [35]) was > 64 µg/mL and the MIC90 (Staphylococcus aureus [38]) was > 64 µg/mL. For the same molecule, the MIC90 (Staphylococcus aureus [39]) was > 64 µg/mL and the MIC90 (Staphylococcus aureus [40]) was > 192 µg/mL.
